Results taken from ChEMBL document CHEMBL5335812, “PSMA-targeted SMART molecules outfitted with SN38” (Bioorg Med Chem Lett, 2024).
Active and inactive are the calls of the source. The rule behind the calls is not given here.

Key:
[1] = Stability of the compound assessed as payload release at pH 5.0 measured after 18 hrs by fluorescence based analysis; assay type: physicochemical; conditions: buffer, pH 5, 18 h
[2] = Stability of the compound assessed as payload release at pH 5.5 measured after 18 hrs by fluorescence based analysis; assay type: physicochemical; conditions: buffer, pH 5.5, 18 h
[3] = Stability of the compound assessed as payload release at pH 7.4 measured after 18 hrs by fluorescence based analysis; assay type: physicochemical; conditions: buffer, pH 7.4, 18 h
[4] = Stability of the compound at pH 7.4; assay type: physicochemical; conditions: buffer
[5] = Stability of the compound assessed as kinetic half life at pH 6; assay type: physicochemical; conditions: buffer
[6] = Stability of the compound assessed as kinetic half life at pH 5.5; assay type: physicochemical; conditions: buffer
[7] = Stability of the compound assessed as kinetic half life at pH 5; assay type: physicochemical; conditions: buffer
[8] = Stability of the compound assessed as hydrolysis at pH 7.4 measured after 8 hrs by 31P NMR; assay type: physicochemical; conditions: buffer, pH 7.4, 8 h
[9] = Stability of the compound assessed as kinetic half life at pH 4.5; assay type: physicochemical; conditions: buffer
LNCaP C4-2B = experiment: Antiproliferative activity against human C4-2B cells expressing PSMA assessed as reduction in cell viability incubated for 72 hrs by cellTiter-Glo Luminescent cell viability assay
[10] = Drug metabolism in human C4-2B cells expressing PSMA assessed as payload release incubated for 30 min by confocal microscopy; assay type: ADME, cell-based; conditions: lncap c4-2b, 0.5 h
[11] = Drug metabolism in human PC-3 cells with PSMA knockout assessed as intracellular SN38 release incubated for 30 min by confocal microscopy; assay type: ADME, cell-based; conditions: pc-3, 0.5 h
PC-3 = experiment: Antiproliferative activity against human PC-3 cells with PSMA knockout assessed as reduction in cell viability incubated for 72 hrs by cellTiter-Glo Luminescent cell viability assay; assay type: functional, cell-based

CCc1c2c(nc3ccc(O)cc13)-c1cc3c(c(=O)n1C2)COC(=O)[C@]3(O)CC [7-ETHYL-10-HYDROXYCAMPTOTHECIN]
Activity [1]: 25%
Activity [2]: ~ 25%
Stability [3]: Stable

CCc1c2c(nc3ccc(OC(=O)N(C)CCN(C)P(=O)(O)OCC[C@H](NC(=O)c4ccc(CN=[N+]=[N-])cc4)C(=O)O)cc13)-c1cc3c(c(=O)n1C2)COC(=O)[C@]3(O)CC
Stability [4]: Stable
half-life [5]: 42 h
half-life [6]: 11 h
half-life [7]: 4.3 h
Stability [8]: Stable
half-life [9]: 1.9 h

CCc1c2c(nc3ccc(OC(=O)N(C)CCN(C)P(=O)(O)OCC[C@H](NC(=O)c4ccc(Cn5nnc6c5-c5ccccc5CN(C(=O)CCC(=O)NCCOCCOCCOCCOCCC(=O)NCCCCCC(=O)N[C@@H](CCC(=O)N[C@@H](CCCOP(=O)(O)N[C@@H](CCC(=O)O)C(=O)O)C(=O)O)C(=O)O)c5ccccc5-6)cc4)C(=O)O)cc13)-c1cc3c(c(=O)n1C2)COC(=O)[C@]3(O)CC
IC50 (LNCaP C4-2B): 3 nM
Drug metabolism [10]: Metabolite_Detected
Drug metabolism [11]: Metabolite_Notdetected
Activity (PC-3): inactive
